Values quoted from earlier work in US20250382198A1, “ADSORBENT AND METHOD FOR REMOVING PER- AND/OR POLYFLUOROALKYL SUBSTANCES (PFAS) IN WATER MATRICES” (University of Central Florida Research Foundation, Inc., priority 2024, published 2025).

SMILES	Log D	pKa
O=C(O)C(F)(OC(F)(F)C(F)(F)C(F)(F)F)C(F)(F)F (centres unmarked) [GenX, hexafluoropropylene oxide dimer acid]	0.47	2.84
O=C(O)C(F)(F)C(F)(F)C(F)(F)F [PFBA, Perfluorobutanoic acid]	−1.22	
O=C(O)C(F)(F)C(F)(F)C(F)(F)C(F)(F)C(F)(F)C(F)(F)C(F)(F)F [PFOA, Perfluorooctanoic acid]	1.58	
O=S(=O)(O)C(F)(F)C(F)(F)C(F)(F)C(F)(F)C(F)(F)C(F)(F)C(F)(F)C(F)(F)F [PFOS, Perfluorooctanesulfonic acid]	3.05	
